Reference: patent US12252524B2, “GIP/GLP1 co-agonist compounds” (Eli Lilly and Company, priority 2018, dated 2025)
Numbered stars: 1 amine (or outer) side, 2 acyl side, 3 side chain; on linkers, the order of the positions; unused ones are H or OH. Square brackets hold non-standard residues; d marks the D form. Side chains are listed from the residue outwards. Peptide text beside a SMILES is read from it. * marks the point of attachment. C20 diacid = O=C(O)CCCCCCCCCCCCCCCCCCC(=O)*; C18 diacid = O=C(O)CCCCCCCCCCCCCCCCC(=O)*; αMePhe(2-F) = C[C@](N)(Cc1ccccc1F)C(=O)O; C16 diacid = O=C(O)CCCCCCCCCCCCCCC(=O)*; γGlu = O=C(O)[C@H](CCC(=O)[*:2])N[*:1]; 4Pal = N[C@@H](Cc1ccncc1)C(=O)O; αMeL = CC(C)C[C@](C)(N)C(=O)O; AEEA = NCCOCCOCC(=O)O; Aib = CC(C)(N)C(=O)O

What was measured:
human Gcg receptor = biological target: T1, human Gcg receptor (Homo sapiens, UniProt P47871); test: [125I]-Glucagon binding (SPA), human Gcg receptor; conditions: read-out: hGLcgR Ki, nM (SEM, n)
T1 construct: expressed in transfected cells; crude membranes
Method in brief: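 Cell pellets were lysed in hypotonic Tris buffer, pH 7.5, homogenized, and spun at low then high speed to give crude membranes. Ki was derived from the fitted IC50.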

[1] = biological target: human GLP-1 receptor (GLP-1R) (Homo sapiens, UniProt P43220); test: cAMP pharmacological functional assay in presence of casein, hGLP-1R; format: cell-based; conditions: HEK293 cells expressing hGLP-1R, 0.1% Casein, geometric mean; read-out: hGLP1R cAMP Rel EC50 nM (SEM, n)
human GIP receptor = biological target: T2, human GIP receptor (Homo sapiens, UniProt P48546); test: [125I]-GIP binding (SPA), human GIP receptor; conditions: read-out: hGIPR Ki, nM (SEM, n)
T2 construct: expressed in transfected cells; crude membranes
T2 sequence (P48546 22-466): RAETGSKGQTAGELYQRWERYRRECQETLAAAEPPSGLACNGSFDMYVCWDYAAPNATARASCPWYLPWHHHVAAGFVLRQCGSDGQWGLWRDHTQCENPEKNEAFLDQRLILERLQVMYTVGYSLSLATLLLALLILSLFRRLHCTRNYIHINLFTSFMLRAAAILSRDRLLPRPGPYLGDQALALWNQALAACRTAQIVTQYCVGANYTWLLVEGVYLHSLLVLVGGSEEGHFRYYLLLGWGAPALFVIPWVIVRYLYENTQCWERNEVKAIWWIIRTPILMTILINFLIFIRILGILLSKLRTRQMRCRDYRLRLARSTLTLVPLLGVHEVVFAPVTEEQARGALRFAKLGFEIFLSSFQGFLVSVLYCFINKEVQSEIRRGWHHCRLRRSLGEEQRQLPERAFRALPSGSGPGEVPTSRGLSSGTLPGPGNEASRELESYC

[2] = biological target: T3, gastric inhibitory peptide receptor (GIPR) (Homo sapiens, UniProt P48546); test: cAMP pharmacological functional assay in presence of casein, hGIPR; format: cell-based; conditions: HEK293 cells expressing hGIPR, 0.1% Casein, geometric mean; read-out: hGIPR cAMP Rel EC50 nM (SEM, n)
T3 sequence (P48546 22-466): T2 sequence (P48546 22-466)

human GLP-1R = human GLP-1R (Homo sapiens, UniProt P43220); test: [125I]-GLP-1 binding (SPA), human GLP-1 receptor; design: expressed in transfected cells; crude membranes; conditions: read-out: hGLP1R Ki, (nM) (SEM, n)
Method in brief: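 Membranes: hypotonic lysis (50 mM Tris HCl, pH 7.5, protease inhibitors), Potter-Elvehjem homogenization, high-speed pellet (35000×g 1 h or 25000×g 30 min, 4° C.). Buffer: 25 mM HEPES pH 7.4, 2.5 mM CaCl2, 1 mM MgCl2. Four-parameter IC50 fit; Ki as geometric mean ± SEM.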

T1 sequence (P47871 26-477): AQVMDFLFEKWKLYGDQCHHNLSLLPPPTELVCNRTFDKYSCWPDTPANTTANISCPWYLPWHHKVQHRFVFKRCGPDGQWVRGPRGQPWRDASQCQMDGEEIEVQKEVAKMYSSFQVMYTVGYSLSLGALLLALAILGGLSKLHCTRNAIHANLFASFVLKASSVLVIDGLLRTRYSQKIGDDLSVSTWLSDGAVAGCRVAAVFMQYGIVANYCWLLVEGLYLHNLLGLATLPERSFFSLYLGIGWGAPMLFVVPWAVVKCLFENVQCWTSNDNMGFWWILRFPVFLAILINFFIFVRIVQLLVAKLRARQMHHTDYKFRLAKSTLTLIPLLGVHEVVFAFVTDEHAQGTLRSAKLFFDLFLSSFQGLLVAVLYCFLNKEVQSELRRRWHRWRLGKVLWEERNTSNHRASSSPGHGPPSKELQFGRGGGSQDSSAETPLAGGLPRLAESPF
Sequence of human GLP-1 receptor (GLP-1R) (P43220 24-463): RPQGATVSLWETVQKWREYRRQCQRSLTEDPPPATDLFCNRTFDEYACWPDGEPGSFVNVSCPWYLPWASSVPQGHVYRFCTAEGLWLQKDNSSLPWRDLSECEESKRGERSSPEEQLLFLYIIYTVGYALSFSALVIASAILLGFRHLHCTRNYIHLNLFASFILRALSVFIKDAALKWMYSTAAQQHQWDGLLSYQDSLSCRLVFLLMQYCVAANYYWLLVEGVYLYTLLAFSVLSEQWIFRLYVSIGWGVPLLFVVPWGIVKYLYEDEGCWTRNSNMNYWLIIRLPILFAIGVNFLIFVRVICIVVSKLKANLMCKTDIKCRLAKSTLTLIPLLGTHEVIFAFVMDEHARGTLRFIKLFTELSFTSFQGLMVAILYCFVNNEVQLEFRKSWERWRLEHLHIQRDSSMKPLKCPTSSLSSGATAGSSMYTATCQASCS
Sequence of human GLP-1R (P43220 24-463): as above

SMILES: CC[C@H](C)[C@H](NC(=O)[C@H](CC(C)C)NC(=O)[C@H](Cc1ccc(O)cc1)NC(=O)[C@@H](CCC(=O)O)NC(=O)[C@@H](NC(=O)[C@H](Cc1ccccc1)NC(=O)[C@H](CCC(=O)O)NC(=O)C(C)(C)NC(=O)[C@H](CCC(N)=O)NC(=O)[C@H](C)NC(=O)[C@H](CCCCNC(=O)COCCOCCNC(=O)COCCOCCNC(=O)CC[C@H](NC(=O)CCCCCCCCCCCCCCCCCCC(=O)O)C(=O)O)NC(=O)[C@H](CCC(=O)O)NC(=O)[C@H](CC(=O)O)NC(=O)[C@H](CC(C)C)NC(=O)[C@](C)(CC(C)C)NC(=O)[C@@H](NC(=O)[C@H](CO)NC(=O)[C@H](C)NC(=O)[C@H](CC(=O)O)NC(=O)[C@H](CO)NC(=O)[C@@H](NC(=O)[C@](C)(Cc1ccccc1F)NC(=O)[C@@H](NC(=O)CNC(=O)[C@H](CCC(=O)O)NC(=O)C(C)(C)NC(=O)[C@@H](N)Cc1ccc(O)cc1)[C@@H](C)O)[C@@H](C)O)[C@@H](C)CC)[C@@H](C)CC)C(=O)N[C@@H](CCC(=O)O)C(=O)NCC(=O)NCC(=O)N1CCC[C@H]1C(=O)N[C@@H](CO)C(=O)N[C@@H](CO)C(=O)NCC(=O)N[C@@H](C)C(=O)N1CCC[C@H]1C(=O)N1CCC[C@H]1C(=O)N1CCC[C@H]1C(=O)N[C@@H](CO)C(N)=O [Example 192] (H-Y[Aib]EGT[αMePhe(2-F)]TSDASI[αMeL]LDEK([AEEA-AEEA-γGlu-C20 diacid])AQ[Aib]EFI[dE]YLIEGGPSSGAPPPS-NH2; N-terminus assumed)
- Ki (human Gcg receptor): > 1110 nM
- EC50 [1]: 0.0289 nM
- Ki (human GIP receptor): 0.118 nM
- EC50 [2]: 0.0615 nM
- Ki (human GLP-1R): 2.89 nM

SMILES: CC[C@H](C)[C@H](NC(=O)[C@H](CC(C)C)NC(=O)[C@H](Cc1ccc(O)cc1)NC(=O)[C@@H](CCC(=O)O)NC(=O)[C@@H](NC(=O)[C@H](Cc1ccccc1)NC(=O)[C@H](CCC(=O)O)NC(=O)C(C)(C)NC(=O)[C@H](CCC(N)=O)NC(=O)[C@H](C)NC(=O)[C@H](CCCCNC(=O)COCCOCCNC(=O)COCCOCCNC(=O)CC[C@H](NC(=O)CCCCCCCCCCCCCCCCCCC(=O)O)C(=O)O)NC(=O)[C@H](CCCCN)NC(=O)[C@H](CC(=O)O)NC(=O)[C@H](CC(C)C)NC(=O)[C@](C)(CC(C)C)NC(=O)[C@@H](NC(=O)[C@H](CO)NC(=O)[C@H](Cc1ccncc1)NC(=O)[C@H](CC(=O)O)NC(=O)[C@H](CO)NC(=O)[C@@H](NC(=O)[C@](C)(Cc1ccccc1F)NC(=O)[C@@H](NC(=O)CNC(=O)[C@H](CCC(=O)O)NC(=O)C(C)(C)NC(=O)[C@@H](N)Cc1ccc(O)cc1)[C@@H](C)O)[C@@H](C)O)[C@@H](C)CC)[C@@H](C)CC)C(=O)N[C@@H](CCC(=O)O)C(=O)NCC(=O)NCC(=O)N1CCC[C@H]1C(=O)N[C@@H](CO)C(=O)N[C@@H](CO)C(=O)NCC(=O)N[C@@H](C)C(=O)N1CCC[C@H]1C(=O)N1CCC[C@H]1C(=O)N1CCC[C@H]1C(=O)N[C@@H](CO)C(N)=O [Example 203] (H-Y[Aib]EGT[αMePhe(2-F)]TSD[4Pal]SI[αMeL]LDKK([AEEA-AEEA-γGlu-C20 diacid])AQ[Aib]EFI[dE]YLIEGGPSSGAPPPS-NH2; N-terminus assumed)
- Ki (human Gcg receptor): 845 nM
- EC50 [1]: 0.0679 nM
- Ki (human GIP receptor): 0.0337 nM
- EC50 [2]: 0.0387 nM
- Ki (human GLP-1R): 3.9 nM

SMILES: CC[C@H](C)[C@H](NC(=O)[C@H](CC(C)C)NC(=O)[C@H](Cc1ccc(O)cc1)NC(=O)[C@@H](CCC(=O)O)NC(=O)[C@@H](NC(=O)[C@H](Cc1ccccc1)NC(=O)[C@H](CCC(=O)O)NC(=O)C(C)(C)NC(=O)[C@H](CCC(N)=O)NC(=O)[C@H](C)NC(=O)[C@H](CCCCNC(=O)COCCOCCNC(=O)COCCOCCNC(=O)CCCCCCCCCCCCCCCCC(=O)O)NC(=O)[C@H](CCC(=O)O)NC(=O)[C@H](CC(=O)O)NC(=O)[C@H](CC(C)C)NC(=O)[C@](C)(CC(C)C)NC(=O)[C@@H](NC(=O)[C@H](CO)NC(=O)[C@H](Cc1ccncc1)NC(=O)[C@H](CC(=O)O)NC(=O)[C@H](CO)NC(=O)[C@@H](NC(=O)[C@](C)(Cc1ccccc1F)NC(=O)[C@@H](NC(=O)CNC(=O)[C@H](CCC(=O)O)NC(=O)C(C)(C)NC(=O)[C@@H](N)Cc1ccc(O)cc1)[C@@H](C)O)[C@@H](C)O)[C@@H](C)CC)[C@@H](C)CC)C(=O)N[C@@H](CCC(=O)O)C(=O)NCC(=O)NCC(=O)N1CCC[C@H]1C(=O)N[C@@H](CO)C(=O)N[C@@H](CO)C(=O)NCC(=O)N[C@@H](C)C(=O)N1CCC[C@H]1C(=O)N1CCC[C@H]1C(=O)N1CCC[C@H]1C(=O)N[C@@H](CO)C(N)=O [Example 205] (H-Y[Aib]EGT[αMePhe(2-F)]TSD[4Pal]SI[αMeL]LDEK([AEEA-AEEA-C18 diacid])AQ[Aib]EFI[dE]YLIEGGPSSGAPPPS-NH2; N-terminus assumed)
- Ki (human Gcg receptor): 438 nM
- EC50 [1]: 0.0261 nM
- Ki (human GIP receptor): 0.0367 nM
- EC50 [2]: 0.0281 nM
- Ki (human GLP-1R): 3.05 nM

SMILES: CC[C@H](C)[C@H](NC(=O)[C@H](CC(C)C)NC(=O)[C@H](Cc1ccc(O)cc1)NC(=O)[C@@H](CCC(=O)O)NC(=O)[C@@H](NC(=O)[C@H](Cc1ccccc1)NC(=O)[C@H](CCC(=O)O)NC(=O)C(C)(C)NC(=O)[C@H](CCC(N)=O)NC(=O)[C@H](C)NC(=O)[C@H](CCCCNC(=O)COCCOCCNC(=O)COCCOCCNC(=O)CCCCCCCCCCCCCCCCCCC(=O)O)NC(=O)[C@H](CCC(=O)O)NC(=O)[C@H](CC(=O)O)NC(=O)[C@H](CC(C)C)NC(=O)[C@](C)(CC(C)C)NC(=O)[C@@H](NC(=O)[C@H](CO)NC(=O)[C@H](Cc1ccncc1)NC(=O)[C@H](CC(=O)O)NC(=O)[C@H](CO)NC(=O)[C@@H](NC(=O)[C@](C)(Cc1ccccc1F)NC(=O)[C@@H](NC(=O)CNC(=O)[C@H](CCC(=O)O)NC(=O)C(C)(C)NC(=O)[C@@H](N)Cc1ccc(O)cc1)[C@@H](C)O)[C@@H](C)O)[C@@H](C)CC)[C@@H](C)CC)C(=O)N[C@@H](CCC(=O)O)C(=O)NCC(=O)NCC(=O)N1CCC[C@H]1C(=O)N[C@@H](CO)C(=O)N[C@@H](CO)C(=O)NCC(=O)N[C@@H](C)C(=O)N1CCC[C@H]1C(=O)N1CCC[C@H]1C(=O)N1CCC[C@H]1C(=O)N[C@@H](CO)C(N)=O [Example 206] (H-Y[Aib]EGT[αMePhe(2-F)]TSD[4Pal]SI[αMeL]LDEK([AEEA-AEEA-C20 diacid])AQ[Aib]EFI[dE]YLIEGGPSSGAPPPS-NH2; N-terminus assumed)
- Ki (human Gcg receptor): 176 nM
- EC50 [1]: 0.027 nM
- Ki (human GIP receptor): 0.0814 nM
- EC50 [2]: 0.0409 nM
- Ki (human GLP-1R): 5.27 nM

SMILES: CC[C@H](C)[C@H](NC(=O)[C@H](CC(C)C)NC(=O)[C@H](Cc1ccc(O)cc1)NC(=O)[C@@H](CCC(=O)O)NC(=O)[C@@H](NC(=O)[C@H](Cc1ccccc1)NC(=O)[C@H](CCC(=O)O)NC(=O)C(C)(C)NC(=O)[C@H](CCC(N)=O)NC(=O)[C@H](C)NC(=O)[C@H](CCCCNC(=O)COCCOCCNC(=O)COCCOCCNC(=O)CC[C@H](NC(=O)CCCCCCCCCCCCCCC(=O)O)C(=O)O)NC(=O)[C@H](CCC(=O)O)NC(=O)[C@H](CC(=O)O)NC(=O)[C@H](CC(C)C)NC(=O)[C@](C)(CC(C)C)NC(=O)[C@@H](NC(=O)[C@H](CO)NC(=O)[C@H](Cc1ccc(O)cc1)NC(=O)[C@H](CC(=O)O)NC(=O)[C@H](CO)NC(=O)[C@@H](NC(=O)[C@](C)(Cc1ccccc1F)NC(=O)[C@@H](NC(=O)CNC(=O)[C@H](CCC(=O)O)NC(=O)C(C)(C)NC(=O)[C@@H](N)Cc1ccc(O)cc1)[C@@H](C)O)[C@@H](C)O)[C@@H](C)CC)[C@@H](C)CC)C(=O)N[C@@H](CCC(=O)O)C(=O)NCC(=O)NCC(=O)N1CCC[C@H]1C(=O)N[C@@H](CO)C(=O)N[C@@H](CO)C(=O)NCC(=O)N[C@@H](C)C(=O)N1CCC[C@H]1C(=O)N1CCC[C@H]1C(=O)N1CCC[C@H]1C(=O)N[C@@H](CO)C(N)=O [Example 208] (H-Y[Aib]EGT[αMePhe(2-F)]TSDYSI[αMeL]LDEK([AEEA-AEEA-γGlu-C16 diacid])AQ[Aib]EFI[dE]YLIEGGPSSGAPPPS-NH2)
- Ki (human Gcg receptor): > 1060 nM
- EC50 [1]: 0.0753 nM
- Ki (human GIP receptor): 0.0537 nM
- EC50 [2]: 0.0371 nM
- Ki (human GLP-1R): 2.13 nM
